{"source": "paper PMC12682717", "about": "“Radiolabelling and bioequivalence of modified Tamoxifen solid lipid nanoparticles as a targeted chemotherapeutic drug” (Drug Delivery and Translational Research, 2025)", "origin": "cited, not measured here", "key": {"[1]": {"parameters": "method as in PMID 32151063, PMID 37906415", "conditions": "patients"}, "[2]": {"conditions": "no reference given"}}, "note": "Where a name gives a salt, the structure may show the parent alone.", "data": [{"smiles": "CC/C(=C(\\c1ccccc1)c1ccc(OCCN(C)C)cc1)c1ccccc1", "note": "[TAM, Tamoxifen citrate]", "values": [{"measurement": "side effect: depression, irritability or vaginal dryness", "setting": "[1]", "result": 35, "unit": "%"}, {"measurement": "side effect: hot flashes", "setting": "[1]", "result": 64, "unit": "%"}, {"measurement": "side effect: mood swings", "setting": "[1]", "result": 6, "unit": "%"}, {"measurement": "side effect: sleep issues", "setting": "[1]", "result": 36, "unit": "%"}, {"measurement": "side effect: weight gain", "setting": "[1]", "result": 6, "unit": "%"}, {"measurement": "biopharmaceutical categorization system (BCS) class", "setting": "[2]", "result": "class II"}]}]}
